Reference: paper PMC10249096, “Design, Synthesis, and Evaluation of a New Series of Hydrazones as Small-Molecule Akt Inhibitors for NSCLC Therapy” (ACS Omega, 2023)
Like-named read-outs stand apart in the source and are kept apart here.

What was measured:
Akt = Akt Colorimetric In-Cell ELISA, Akt inhibition in A549 cells; assay type: cell-based, human; settings: 24 h; for IC50: A549 cell line, mean ± SD, triplicate, read-out: Akt inhibitory effect IC50
Procedure: The assay was performed in triplicate. IC50 data (μM) were expressed as mean ± SD.

[1] = system: L929 mouse embryonic fibroblast cells; test: MTT test, cytotoxicity on L929 cells; assay type: cell-based; settings: mean ± SD, triplicate, read-out: IC50 L929 cell line
Procedure: (§1) A549 and L929 cell lines were purchased from American Type Culture Collection (Manassas, VA, USA). Cells were cultured, and drug treatments were performed as previously explained.[46]
(§2) MTT assay was conducted as previously described[47] with slight modifications.[48] Cisplatin was used as a positive control. The assay was performed in triplicate. Half-maximal inhibitory concentration (IC50) data (μM) were expressed as mean ± SD.

[2] = system: A549 human lung adenocarcinoma cells; test: MTT test, cytotoxicity on A549 cells; assay type: cell-based; settings: triplicate, read-out: IC50 A549 cell line
Procedure: as §1, §2

A549 cells = test: Annexin V FITC/PI flow cytometric analysis of apoptosis; settings: 24 h, each agent at its IC50 (3a 91.35, 3e 176.23, 3g 46.60, 3i 83.59, cisplatin 23.89 μM)

Row | melting point | SMILES | IC50 (Akt) | IC50 [1] | IC50 ([2]; Homo sapiens, A549, mean ± SD) | early apoptosis (%) (A549 cells) | late apoptosis (%) (A549 cells) | necrosis (%) (A549 cells) | inhibitory effect on Akt (in words) (Akt; A549 cells, 11.65, 23.30 and 46.60 μM) | IC50 ([2]; mean ± SD) | Akt inhibition (Akt; A549 cells, at 91.35 μM)
1 | 229 to 231 °C | O=C(CSc1nc2cc(Cl)ccc2o1)NN=Cc1ccc(-n2ccnc2)cc1 [Compound 3i, N′-[4-(1H-Imidazol-1-yl)benzylidene]-2-[(5-chlorobenzoxazol-2-yl)thio]acetohydrazide] | 69.5 ± 1.48 µM | > 500 µM | 83.6 ± 7.3 µM | 2.70% | 6.04% | 3.51% |  |  | 
2 | 209 to 210 °C | O=C(CSc1nc2cc(Cl)ccc2o1)NN=Cc1ccc(N2CCOCC2)cc1 [Compound 3f, N′-[4-(Morpholin-4-yl)benzylidene]-2-[(5-chlorobenzoxazol-2-yl)thio]acetohydrazide] |  | > 500 µM | 251 ± 45.9 µM |  |  |  |  |  | 
3 | 178 to 179 °C | CN1CCN(c2ccc(C=NNC(=O)CSc3nc4cc(Cl)ccc4o3)cc2)CC1 [Compound 3g, N′-[4-(4-Methylpiperazin-1-yl)benzylidene]-2-[(5-chlorobenzoxazol-2-yl)thio]acetohydrazide] |  | 277 ± 28.9 µM | 46.6 ± 6.15 µM | 7.13% | 12.17% | 0.78% | did not exert any inhibitory effect |  | 
4 | 256 to 257 °C | O=C(CSc1nc2cc(Cl)ccc2o1)NN=Cc1ccc(-n2cncn2)cc1 [Compound 3j, N′-[4-(1H-1,2,4-Triazol-1-yl)benzylidene]-2-[(5-chlorobenzoxazol-2-yl)thio]acetohydrazide] |  | > 500 µM | > 500 µM |  |  |  |  |  | 
5 | 206 to 207 °C | O=C(CSc1nc2cc(Cl)ccc2o1)NN=Cc1ccc(N2CCCC2)cc1 [Compound 3h, N′-[4-(Pyrrolidin-1-yl)benzylidene]-2-[(5-chlorobenzoxazol-2-yl)thio]acetohydrazide] |  | > 500 µM | > 500 µM |  |  |  |  |  | 

The next lines start with the compound.

Row | SMILES | melting point | IC50 (Akt) | IC50 [1] | IC50 ([2]; Homo sapiens, A549, mean ± SD) | early apoptosis (%) (A549 cells) | late apoptosis (%) (A549 cells) | necrosis (%) (A549 cells) | inhibitory effect on Akt (in words) (Akt; A549 cells, 11.65, 23.30 and 46.60 μM) | IC50 ([2]; mean ± SD) | Akt inhibition (Akt; A549 cells, at 91.35 μM)
6 | CCn1c(-c2nonc2N)nc2c(C#CC(C)(C)O)ncc(OC[C@H]3CCCNC3)c21 [GSK690693, reference compound] |  | 5.93 ± 1.2 µM |  |  |  |  |  |  |  | 
7 | NNC(=O)CSc1nc2cc(Cl)ccc2o1 [Compound 2, 2-[(5-Chlorobenzoxazol-2-yl)thio]acetohydrazide] | 159 to 161 °C |  | > 500 µM | > 500 µM |  |  |  |  |  | 
8 | CCN(CC)c1ccc(C=NNC(=O)CSc2nc3cc(Cl)ccc3o2)cc1 [Compound 3b, N′-(4-Diethylaminobenzylidene)-2-[(5-chlorobenzoxazol-2-yl)thio]acetohydrazide] | 172 to 173 °C |  | > 500 µM | 410 ± 220 µM |  |  |  |  |  | 
9 | O=C(CSc1nc2cc(Cl)ccc2o1)NN=Cc1ccc(N2CCCCC2)cc1 [Compound 3e, N′-[4-(Piperidin-1-yl)benzylidene]-2-[(5-chlorobenzoxazol-2-yl)thio]acetohydrazide] |  | 106 ± 53.7 µM | > 500 µM | 176 ± 56.5 µM | 3.26% | 1.76% | 3.79% |  |  | 
10 | O=C(CSc1nc2cc(Cl)ccc2o1)NN=Cc1ccc([N+](=O)[O-])cc1 [Compound 3d, N′-(4-Nitrobenzylidene)-2-[(5-chlorobenzoxazol-2-yl)thio]acetohydrazide] | 237 to 239 °C |  | > 500 µM | > 500 µM |  |  |  |  |  | 
11 | N.N.[Cl][Pt][Cl] [Cisplatin, reference compound] |  | 8.09 ± 0.63 µM |  |  | 3.61% | 3.14% | 0.98% |  | 23.9 ± 2.71 µM | 
12 | O=C(CSc1nc2cc(Cl)ccc2o1)NN=Cc1ccc(N(CCCl)CCCl)cc1 [Compound 3c, N′-[4-(Bis(2-chloroethyl)amino)benzylidene]-2-[(5-chlorobenzoxazol-2-yl)thio]acetohydrazide] | 155 to 156 °C |  | > 500 µM | > 500 µM |  |  |  |  |  | 
13 | CN(C)c1ccc(C=NNC(=O)CSc2nc3cc(Cl)ccc3o2)cc1 [Compound 3a, N′-(4-Dimethylaminobenzylidene)-2-[(5-chlorobenzoxazol-2-yl)thio]acetohydrazide] | 197 to 199 °C |  | > 500 µM | 91.4 ± 21.9 µM | 11.22% | 4.97% | 0.79% |  |  | 35.40 ± 13.36%
